pEC50, pIC50: −log10 of the molar value. Read-outs that look alike come from different tables or passages of the source.
Columns and labels:
[1] = target: T1, HCV NS5B RdRp genotype 1b (Hepatitis C virus genotype 1b, UniProt Q9WMX2); test: Standard HCV NS5B RdRp enzyme assay; assay type: biochemical; details: HCV NS5B RdRp genotype 1b, read-out: IC50
T1 construct: The protein was expressed with an 18 amino acid C-terminal truncation to enhance the solubility; made in house; host or cells: E. coli BL21(DE3), pET21a vector
In short: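 Radiometric SPA measuring 3H-UMP incorporation on polyA/biotin-oligo-dT12 (6 nM/180 nM), 0.29 μM total UTP. Enzyme: NS5B 1b lacking last 18 residues, 28 nM final, 30° C for 60 min in 20 mM Hepes pH 7.5, 2.5 mM MgCl2, 2% DMSO. IC50 from seven-point curves.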

HCV replicon cells = test: HCV replicon FRET / luciferase assay (96-well plates); assay type: cell-based; details: Hepatitis C virus, HCV replicon, read-out: EC50
In short: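 Percent activity is background-subtracted signal relative to untreated cell wells, with background taken from maximal protease-inhibitor wells. Cytotoxicity is Alamar blue fluorescence relative to controls. Replicon inhibition was read by NS3 FRET peptide cleavage (340/490 nm) or luciferase.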

T1 sequence (Q9WMX2 2420-2992): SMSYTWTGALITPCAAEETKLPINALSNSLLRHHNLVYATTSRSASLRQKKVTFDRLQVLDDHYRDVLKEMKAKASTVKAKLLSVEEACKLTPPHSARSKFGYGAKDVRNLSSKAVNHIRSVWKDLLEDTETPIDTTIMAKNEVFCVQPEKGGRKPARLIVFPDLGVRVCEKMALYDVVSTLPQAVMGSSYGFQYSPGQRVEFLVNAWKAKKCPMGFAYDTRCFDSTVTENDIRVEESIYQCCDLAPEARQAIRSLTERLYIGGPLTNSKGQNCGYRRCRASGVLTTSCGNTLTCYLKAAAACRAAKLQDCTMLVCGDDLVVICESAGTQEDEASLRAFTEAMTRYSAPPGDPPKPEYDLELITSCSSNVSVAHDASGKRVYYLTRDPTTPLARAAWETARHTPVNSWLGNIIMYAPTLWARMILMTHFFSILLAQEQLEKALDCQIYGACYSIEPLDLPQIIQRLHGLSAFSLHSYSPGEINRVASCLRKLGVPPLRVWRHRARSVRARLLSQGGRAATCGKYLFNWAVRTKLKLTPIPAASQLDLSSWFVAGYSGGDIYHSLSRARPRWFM

| Structure (SMILES) | pIC50 ([1]; Table 1a) | pEC50 (HCV replicon cells; Table 1a) | pIC50 ([1]; Table 1b) | pEC50 (HCV replicon cells; Table 1b) | also measured |
| --- | --- | --- | --- | --- | --- |
| CNC(=O)c1c(-c2ccc(F)cc2)oc2ccc(-c3cccc(C(=O)Nc4cccc(CC(=O)O)c4)c3)cc12 | > 6.60 | < 5.00 | – | – | – |
| CCC(NC(=O)c1ccc(F)c(-c2cc3c(C(=O)NC)c(-c4ccc(F)cc4)oc3cc2NS(C)(=O)=O)c1)c1ccccc1 (centres unmarked) | – | – | > 6.60 | > 6.60 | – |
| CNC(=O)c1c(-c2ccc(F)cc2)oc2ccc(-c3ccc(F)cc3CN)cc12 | < 5.00 | < 5.00 | – | – | – |
| CCC(O)COc1ccc(C(=O)NCC(C)C)cc1-c1ccc2oc(-c3ccc(F)cc3)c(C(=O)NC)c2c1 (centres unmarked) | – | – | 6.00 to 6.60 | 6.00 to 6.60 | – |
| CNC(=O)c1c(-c2ccc(F)cc2)oc2ccc(-c3cccc(C(=O)NC(C)(C)C(=O)Nc4cc(C)no4)c3)cc12 | – | – | > 6.60 | > 6.60 | – |
| CNC(=O)c1c(-c2ccc(F)cc2)oc2ccc(-c3cc(C(=O)NC4(c5ccccc5)CC4)ccc3F)cc12 [drawing 100] | > 6.60 | > 6.60 | – | – | – |
| CNC(=O)c1c(-c2ccc(F)cc2)oc2ccc(-c3cc(OCCC4CCNCC4)cc(C(=O)NCC(C)C)c3)cc12 | – | – | > 6.60 | 5.00 to 6.00 | – |
| CNC(=O)c1c(-c2ccc(F)cc2)oc2ccc(-c3ccc(C(=O)NCC(=O)OC)cc3)cc12 | < 5.00 | 5.00 to 6.00 | – | – | – |
| CNC(=O)c1c(-c2ccc(F)cc2)oc2ccc(-c3cc(OCCc4cccnc4)cc(C(=O)NCC(C)C)c3)cc12 | – | – | < 5.00 | 5.00 to 6.00 | – |
| CNC(=O)c1c(-c2ccc(F)cc2)oc2ccc(-c3ccc(C(=O)NCCC(N)=O)cc3)cc12 | < 5.00 | < 5.00 | – | – | – |
| CNC(=O)c1c(-c2ccc(F)cc2)oc2ccc(-c3cc(C(=O)NCC(C)C)ccc3OC)cc12 | > 6.60 | > 6.60 | – | – | – |
| CNC(=O)c1c(-c2ccc(F)cc2)oc2ccc(-c3cc(C(=O)NC4(c5cccc(C)c5)CC4)c(OC)cc3C)cc12 | – | – | – | – | pIC50 ([1]; Table 1d (class symbols)): 6.60 to 9.00; pEC50 (HCV replicon cells; 24 h, Table 1d (class symbols)): 6.60 to 9.00 |
| CNC(=O)c1c(-c2ccc(F)cc2)oc2ccc(-c3cc(C(=O)NC4(c5ccccn5)CC4)c(OC)cc3OC)cc12 | – | – | > 6.60 | > 6.60 | – |
| CNC(=O)c1c(-c2ccc(F)cc2)oc2ccc(-c3cccc(C(=O)Nc4nccs4)c3)cc12 | > 6.60 | 6.00 to 6.60 | – | – | – |
| CNC(=O)c1c(-c2ccc(F)cc2)oc2ccc(-c3cc(C(=O)NC4(c5nnc(-c6ccccc6Cl)[nH]5)CC4)ccc3C)cc12 | – | – | > 6.60 | > 6.60 | – |
| CNC(=O)c1c(-c2ccc(F)cc2)oc2ccc(-c3cccc(C(=O)NCc4cccc(F)c4)c3)cc12 | > 6.60 | > 6.60 | – | – | – |
| CNC(=O)c1c(-c2ccc(F)cc2)oc2ccc(-c3ccc(-c4cccc(-c5ccccc5)c4)c(C(=O)NCC(C)C)c3)cc12 | – | – | < 5.00 | 6.00 to 6.60 | – |
| CNC(=O)c1c(-c2ccc(F)cc2)oc2ccc(-c3cc(O)cc(C(=O)NCC(C)C)c3)cc12 | – | – | > 6.60 | 6.00 to 6.60 | – |
| CNC(=O)c1c(-c2ccc(F)cc2)oc2ccc(-c3cc(OCc4ccoc4)cc(C(=O)NCC(C)C)c3)cc12 | – | – | 5.00 to 6.00 | 5.00 to 6.00 | – |
| CNC(=O)c1c(-c2ccc(F)cc2)oc2ccc(-c3cc(C(=O)NCC(C)C)ccc3OCc3ccnc(Br)c3)cc12 | – | – | 6.00 to 6.60 | 6.00 to 6.60 | – |
| CNC(=O)c1c(-c2ccc(F)cc2)oc2ccc(-c3cccc(C(=O)NCC(N)=O)c3)cc12 | < 5.00 | < 5.00 | – | – | – |
| CNC(=O)c1c(-c2ccc(F)cc2)oc2ccc(-c3cccc(C(=O)OC(C)(C)C)c3)cc12 | 5.00 to 6.00 | 5.00 to 6.00 | – | – | – |
| CNC(=O)c1c(-c2ccc(F)cc2)oc2ccc(-c3cccc(C(=O)Nc4nc(C)cs4)c3)cc12 | > 6.60 | 6.00 to 6.60 | – | – | – |

| Structure (SMILES) | pIC50 ([1]; Table 1a) | pEC50 (HCV replicon cells; Table 1a) | pIC50 ([1]; Table 1b) | pEC50 (HCV replicon cells; Table 1b) | also measured |
| --- | --- | --- | --- | --- | --- |
| CNC(=O)c1c(-c2ccc(F)cc2)oc2ccc(-c3cc(C(=O)NC4(c5noc(C)n5)CC4)ccc3C)cc12 | – | – | > 7.70 | > 6.60 | – |
| CNC(=O)c1c(-c2ccc(F)cc2)oc2ccc(-c3cc(C(=O)NC4(c5ccccc5)CC4)ccc3OCCO)cc12 | – | – | > 6.60 | > 6.60 | – |
| CCNC(=O)C(C)(C)NC(=O)c1cccc(-c2ccc3oc(-c4ccc(F)cc4)c(C(=O)NC)c3c2)c1 | 6.00 to 6.60 | 6.00 to 6.60 | – | – | – |
| CCCC[C@H](CO)NC(=O)c1cccc(-c2ccc3oc(-c4ccc(F)cc4)c(C(=O)NC)c3c2)c1 [drawing 232] | 6.00 to 6.60 | 5.00 to 6.00 | – | – | – |
| CNC(=O)c1c(-c2ccc(F)cc2)oc2ccc(-c3cccc(C(=O)Nc4cc(C)ccn4)c3)cc12 | 6.00 to 6.60 | > 6.60 | – | – | – |
| CNC(=O)c1c(-c2ccc(F)cc2)oc2ccc(-c3cccc(C(=O)N(C)C(C)(C)C)c3)cc12 | > 6.60 | > 6.60 | – | – | – |
| CNC(=O)c1c(-c2ccc(F)cc2)oc2ccc(-c3cccc(C(=O)N[C@H]4CCC[C@H]4c4ccc(Cl)cc4)c3)cc12 [drawing 243] | < 5.00 | 5.00 to 6.00 | – | – | – |
| CNC(=O)c1c(-c2ccc(F)cc2)oc2ccc(-c3cc(C(=O)NC4(c5ncccn5)CC4)cc(F)c3C)c(F)c12 [drawing 712] | – | – | – | – | pIC50 ([1]; second table titled Table 1d (numbers)): 8.09; pEC50 (HCV replicon cells; 24 h, second table titled Table 1d (numbers)): 8.62 |
| CNC(=O)c1c(-c2ccc(F)cc2)oc2ccc(-c3ccc(-c4ccccc4)c(C(=O)NC(C)(C)c4ccccc4)c3)cc12 | > 6.60 | > 6.60 | – | – | – |
| CNC(=O)c1c(-c2ccc(F)cc2)oc2ccc(-c3cc(C(=O)NCC(C)C)ccc3OCc3c[nH]cn3)cc12 | – | – | > 6.60 | > 6.60 | – |
| CNC(=O)c1c(-c2ccc(F)cc2)oc2cc([N+](=O)[O-])c(-c3cccc(C(=O)NC(C)(C)c4ccccc4)c3)cc12 | > 6.60 | > 6.60 | – | – | – |
| CNC(=O)c1c(-c2ccc(F)cc2)oc2ccc(-c3ccc(F)cc3Cl)cc12 | < 5.00 | < 5.00 | – | – | – |
| CNC(=O)c1c(-c2ccc(F)cc2)oc2ccc(-c3ccc(-c4cncc5ccccc45)c(C(=O)NCC(C)C)c3)cc12 | – | – | 6.00 to 6.60 | > 6.60 | – |
| CNC(=O)c1c(-c2ccc(F)cc2)oc2ccc(-c3cccc(C(=O)Nc4ccnc(C)c4)c3)cc12 | 5.00 to 6.00 | 6.00 to 6.60 | – | – | – |
| CNC(=O)c1c(-c2ccc(F)cc2)oc2ccc(-c3cccc(C(=O)N(CCOC)CCOC)c3)cc12 | 5.00 to 6.00 | 5.00 to 6.00 | – | – | – |
| CNC(=O)c1c(-c2ccc(F)cc2)oc2ccc(-c3cc(Br)cnc3F)cc12 | < 5.00 | < 5.00 | – | – | – |
| CCOC(=O)C1CCCN(C(=O)c2cccc(-c3ccc4oc(-c5ccc(F)cc5)c(C(=O)NC)c4c3)c2)C1 (centres unmarked) | 5.00 to 6.00 | 5.00 to 6.00 | – | – | – |
| CNC(=O)c1c(-c2ccc(F)cc2)oc2ccc(-c3cccc(C(=O)NC(C)(C)CC(C)(C)C)c3)cc12 | 6.00 to 6.60 | > 6.60 | – | – | – |
| CNC(=O)c1c(-c2ccc(F)cc2)oc2ccc(-c3cc(C(=O)NC4(c5ccccn5)CC4)c(OCC4CC4)cc3C)cc12 | – | – | – | – | pIC50 ([1]; Table 1d (class symbols)): 6.60 to 9.00; pEC50 (HCV replicon cells; 24 h, Table 1d (class symbols)): 6.60 to 9.00 |
| CNC(=O)c1c(-c2ccc(F)cc2)oc2ccc(-c3cccc(C(=O)N(C)S(=O)(=O)c4ccccc4)c3)cc12 | < 5.86 | 5.00 to 6.00 | – | – | – |
| CNC(=O)c1c(-c2ccc(F)cc2)oc2ccc(-c3ccc(OC)nc3OC)cc12 | < 5.00 | < 5.91 | – | – | – |
| CNC(=O)c1c(-c2ccc(F)cc2)oc2ccc(-c3cc(C(=O)NCC(C)C)ccc3OCCNC(N)=O)cc12 | – | – | > 6.60 | > 6.60 | – |
| CNC(=O)c1c(-c2ccc(F)cc2)oc2cc([N+](=O)[O-])c(-c3cccc(C(=O)NC4(c5ccccc5)CC4)c3)cc12 | > 6.60 | > 6.60 | – | – | – |

From patent publication US8309558B2, “Compounds for the treatment of hepatitis C” (Bristol-Myers Squibb Company, priority 2008, dated 2012)
